According to patent US7404945B2, “Method of evaluating pharmacological effects of medicine” (Tokyo Gas Company Limited, priority 2002, dated 2008):
Counter-ions that a name gives are not always drawn.

What was measured:
Format in all cases: in vivo
pancreatic protease = assay: Bz-Arg-[1-13C]Ala breath test; conditions: rats
Description: The pharmacological effect of camostat mesylate is the inhibition of pancreatic protease. Bz-Arg-[1-^13C]Ala (see Production Example 3) which is a substrate for pancreatic protease is provided as a pharmacological effect diagnostic reagent and a screening reagent. […] The results of the Bz-Arg-[1-^13C]Ala breath test were as follows: in the both groups, the Δ^13C increased linearly until at the time point of 15 minutes after the administration; twenty minutes after the administration, the Δ^13C reached 41.29±7.49‰ in the control group (n=3), while the Δ^13C reached 27.64±4.86‰ in the administration group (n=3); thus, the Δ^13C decreased in the administration group (FIG. 7). From the results, it was confirmed that the function of the target enzyme for camostat mesylate was inhibited under the camostat mesylate administration conditions of the present example.

α-glucosidase = assay: Glc-[U-13C]Glc breath test; conditions: rats, n=2
Text: The pharmacological effect of acarbose is the inhibition of α-glucosidase. Glc-[U-^13C]Glc (see Production Example 2) which is a substrate for α-glucosidase is provided as a pharmacological effect diagnostic reagent and a screening reagent.

DOPA decarboxylase = molecular target: T1, DOPA decarboxylase (Rattus norvegicus, UniProt P14173); assay: [1-13C]DOPA breath test; conditions: rats
T1 construct: from tissue; host or cells: living rat (whole-animal breath test)
T1 sequence (P14173 1-480): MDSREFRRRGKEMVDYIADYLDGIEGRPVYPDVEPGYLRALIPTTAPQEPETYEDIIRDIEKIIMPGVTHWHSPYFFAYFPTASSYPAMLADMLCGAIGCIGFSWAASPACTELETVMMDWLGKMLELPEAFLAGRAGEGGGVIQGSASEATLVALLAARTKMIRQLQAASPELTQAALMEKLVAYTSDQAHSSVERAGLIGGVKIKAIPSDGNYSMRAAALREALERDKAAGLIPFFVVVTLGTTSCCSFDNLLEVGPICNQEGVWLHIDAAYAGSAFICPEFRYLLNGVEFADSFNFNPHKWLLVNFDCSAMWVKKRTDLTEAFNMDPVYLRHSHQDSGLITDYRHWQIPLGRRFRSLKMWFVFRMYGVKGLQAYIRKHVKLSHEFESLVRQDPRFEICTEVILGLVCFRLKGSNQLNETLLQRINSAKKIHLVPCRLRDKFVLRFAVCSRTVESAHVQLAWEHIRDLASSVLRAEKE
Description: The pharmacological effect of benserazide is the inhibition of DOPA decarboxylase. [1-^13C]DOPA (see Production Example 1) which is a substrate for DOPA decarboxylase is provided as a pharmacological effect diagnostic reagent and a screening reagent. Comparison was made in the [1-^13C]DOPA breath test on rats which were administered intraperitoneally with benserazide hydrochloride (Sigma) at a dose of 50 mg/kg three times (i.e., in the morning and evening of the day before the [1-^13C]DOPA breath test and 30 minutes before the breath test was started on the day of the test) (administration group) and rats without administration (control group).
The rats of the administration group and the control group which had been fasted overnight were fixed supinely under anesthesia. […] When the CO2 concentration stabilized, [1-^13C]DOPA was administered at a dose of 50 mg/kg through the femoral vein.
Output data from the ^13CO2 analyzer were AD-converted and input to a personal computer (Apple Power Macintosh 8500). […]
Δ^13C (‰) was calculated from the ^13C level in the exhaled CO2 at each time point (^13Ctmin) and the ^13C level in the standard CO2 (^13Cstd) according to the following equation: Δ^13C(‰)=[(^13Ctmin−^13C0min)/^13Cstd]×1000

**Q.** How did the “function of the target enzyme” value (pancreatic protease; camostat mesylate 20 mg/kg oral) turn out when `CN(C)C(=O)COC(=O)Cc1ccc(OC(=O)c2ccc(NC(=N)N)cc2)cc1` [camostat mesylate] was run?
**A.** inhibited

**Q.** What about the “Δ13C twenty minutes after the administration” value (pancreatic protease; camostat mesylate 20 mg/kg oral concurrently with Bz-Arg-[1-13C]Ala 12.2 mg/kg oral, n=3) of the same compound?
**A.** 27.64±4.86 ‰

**Q.** What does the source list for `C[C@H]1O[C@H](O[C@H]2[C@H](O)[C@@H](O)[C@@H](O[C@H]3[C@H](O)[C@@H](O)C(O)O[C@@H]3CO)O[C@@H]2CO)[C@H](O)[C@@H](O)[C@@H]1N[C@H]1C=C(CO)[C@@H](O)[C@H](O)[C@H]1O` (stereo partly shown) [acarbose]?
**A.** Δ13C in 20 minutes (α-glucosidase; acarbose 2 mg/kg oral concurrently with Glc-[U-13C]Glc 25 mg/kg oral): 37.06 ±0.16 ‰; Δ13C in 20 minutes (α-glucosidase; acarbose 4 mg/kg oral concurrently with Glc-[U-13C]Glc 25 mg/kg oral): 26.01 ±0.38 ‰; Δ13C in 20 minutes (α-glucosidase; acarbose 10 mg/kg oral concurrently with Glc-[U-13C]Glc 25 mg/kg oral): 9.86±0.66 ‰

**Q.** Which results are given for `NC(CO)C(=O)NNCc1ccc(O)c(O)c1O` (stereo not shown) [benserazide, benserazide hydrochloride]?
**A.** inhibition at 50 mg/kg (DOPA decarboxylase; rat, ip, benserazide 50 mg/kg i.p. three times, [1-13C]DOPA breath test, read-out: inhibition of the function of the target enzyme): ~100%; Δ13C (degree of increase of the 13C level in exhaled CO2) (DOPA decarboxylase; benserazide hydrochloride 50 mg/kg i.p. three times, [1-13C]DOPA 50 mg/kg femoral vein, 20 minutes after the administration): about 5 ‰
